This note sets out measurements from patent US9469627B2, “Phenyloxadiazole derivatives as PGDS inhibitors” (Sanofi, priority 2009, dated 2016).

The structures appear in SMILES notation.

One series concerns the target human h-PGDS (Homo sapiens (Human), UniProt O60760). Description: Enzyme Immunoassay (EIA) method for inhibition of hematopoietic PGD2 synthase. In kind it is biochemical. The settings on record: PGD2 formed from PGH2, measured by EIA; read-out: hPGDS EIA IC50. The source says: The compounds of the present invention can be tested for enzymatic inhibiting activity against PGD2 Synthase according to either one of the following assays.
Assay 2: Enzyme Immunoassay (EIA) Method
• a. Preparation of 0.1M K2HPO4/KH2PO4 buffer (pH 7.4) • Prepare 0.1 M KH2PO4 from 1M KH2PO4 (Sigma, Cat# P-8709) • Prepare 0.1 M K2HPO4 from powder of K2HPO4 (Fisher, BP363-500) • Mix 0.1 M K2HPO4 with 0.1 M KH2PO4 to adjust pH to 7.4. • b. Preparation of 0.5% γ-globulin • Add 0.1 g of γ-globulin (Sigma, Cat# G-5009) to 20 mL 0.1 M K2HPO4/KH2PO4 buffer (pH 7.4) and make 1-mL/vial aliquots and store in −80° C. • c. Preparation of 100 mM GSH • Add 307 mg of GSH (Sigma, Cat# G-6529) to 10 mL 0.1 M K2HPO4/KH2PO4 buffer (pH 7.4) and store at −80° C. • d. Preparation of Reaction buffer: • 198 mL of 0.1M K2HPO4/KH2PO4 buffer (pH 7.4) • 2 mM GSH—Prepared from 100 mM GSH • 0.4 g Glycerol • 2 mL of 0.5% γ-globulin • Add 0.4 g of glycerol and 2 mL of 0.5% γ-globulin to 198 mL of 0.1 M K2HPO4/KH2PO4 • buffer (pH7.4). • Add 0.4 mL of 100 mM GSH to 19.6 mL reaction buffer before the assay (enough for two 96-well plates). • e. Preparation of FeCl2/citric acid stopping solution: (8 mg/mL FeCl2, 0.1 M citric acid) • Add 40 mg fresh FeCl2 (IGN, Cat#158046) to 5 mL 0.1 M citric acid (Sigma, Cat# C0759). • f. Preparation of MOX reagent: • 10% EtOH—Add 1 mL of EtOH to 9 mL of ultra pure H2O • Dissolve 0.1 g of methoxylamine (Cayman, Cat#400036/) in 10% EtOH (10 mL). • Add 0.82 g of sodium acetate (Cayman, Cat#400037) to MOX solution and dissolve. II. Materials and Method • Dimethylsulfoxide (DMSO; Sigma; Cat# D2650) • Prostaglandin D2-MOX express EIA kit (Caymen Chemical, Catalog No. 500151)
Before the assay, cool down 10 mL of acetone in polypropylene tubes and empty 96 well plates in ice. All the procedures except compound dilution are performed on ice.
• 1. Dilute compound in DMSO
• 2. […] Total PGD2 levels (pg/mL) were determined in the samples by EIA kits (Cayman Chemical, Catalog No. 500151) • Calculate amount of PGD2 as below • Calculated % Positive control according to the equation below; […]

Series [1] in a line: Solid solubility (solidsol). It counts as physicochemical.

Chain of human h-PGDS (O60760 whole entry): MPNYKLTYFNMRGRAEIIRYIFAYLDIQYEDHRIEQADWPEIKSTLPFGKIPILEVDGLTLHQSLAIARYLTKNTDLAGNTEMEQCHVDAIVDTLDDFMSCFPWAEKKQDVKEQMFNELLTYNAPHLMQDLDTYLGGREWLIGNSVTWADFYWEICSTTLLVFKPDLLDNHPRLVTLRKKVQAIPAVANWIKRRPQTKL

In the case of `CC(C)(O)c1nc(-c2cccc(CNC(=O)c3cnc(-c4ccccn4)nc3)c2)no1` [Example 1, 2-Pyridin-2-yl-pyrimidine-5-carboxylic acid 3-[5-(1-hydroxy-1-methyl-ethyl)-1,2,4-oxadiazol-3-yl]-benzylamide], the IC50 (in general, the concentration that inhibits the measured activity by half) on human h-PGDS came to 12 nM. This compound gave a solidsol in series [1] of 135.9 µM.
The like results for `C[C@H](NC(=O)c1cnc(-c2ccccn2)nc1)c1cccc(-c2noc(C(C)(C)O)n2)c1` [Example 2, 2-Pyridin-2-yl-pyrimidine-5-carboxylic acid ((S)-1-{3-[5-(1-hydroxy-1-methyl-ethyl)-1,2,4-oxadiazol-3-yl]-phenyl}-ethyl)-amide] were, in that order, 11 nM and 854.9 µM.
The like results for `C[C@@H](NC(=O)c1cnc(-c2ccccn2)nc1)c1cccc(-c2noc(C(C)(C)O)n2)c1` [Example 3, 2-Pyridin-2-yl-pyrimidine-5-carboxylic acid ((R)-1-{3-[5-(1-hydroxy-1-methyl-ethyl)-1,2,4-oxadiazol-3-yl]-phenyl}-ethyl)-amide] were, in that order, 26 nM and 29.4 µM.
